Test results as given in PubChem BioAssay (NCI).
Several values for one entry are separate records, joined by “and”; a condition that tells them apart may be missing. Equal values may be shown once.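 96-well plates; 48 h exposure; 5 concentrations. Endpoints by linear interpolation between flanking doses. Not reached: highest tested concentration assigned. The concentration for 50% growth inhibition is given as GI50. Definition used: TGI = concentration required for complete inhibition of growth.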

Key:
Experiment in all cases: NCI anticancer screen, dose series, 48 h
A498 renal = test system: A498 renal
CAKI-1 renal = test system: CAKI-1 renal
HL-60(TB) leukemia = test system: HL-60(TB) leukemia
HOP-92 NSCLC = test system: HOP-92 NSCLC
IGROV1 ovarian = test system: IGROV1 ovarian
NCI-H460 lung = test system: NCI-H460 lung
RXF 393 renal = test system: RXF 393 renal
SK-MEL-2 melanoma = test system: SK-MEL-2 melanoma
SK-MEL-28 melanoma = test system: SK-MEL-28 melanoma
SW-620 colon = test system: SW-620 colon

Molecule COc1ccc(S(=O)(=O)Nc2ccc(-c3csc(N4C(=O)/C(=C/c5cccs5)N=C4c4ccccc4)n3)cc2)cc1Cl has a TGI (A498 renal) of 65.2 µM, a TGI (CAKI-1 renal) greater than 100 µM and a TGI (HL-60(TB) leukemia) of 87.4 µM. It also gave a TGI (HOP-92 NSCLC) of 72 µM, a TGI (IGROV1 ovarian) greater than 100 µM and a TGI (NCI-H460 lung) greater than 100 µM. For the same molecule, the TGI (RXF 393 renal) was greater than 100 µM, the TGI (SK-MEL-2 melanoma) was greater than 100 µM and the TGI (SK-MEL-28 melanoma) was greater than 100 µM. The TGI (SW-620 colon) was greater than 100 µM.
CCCCCCCCCC[N+](C)(C)C was tested, and the GI50 (A498 renal) was 1.78 µM, the TGI (A498 renal) was 7.81 µM and the GI50 (CAKI-1 renal) was 2.52 µM. The TGI (CAKI-1 renal) was 15.3 µM, the GI50 (HL-60(TB) leukemia) was 0.874 µM and the TGI (HL-60(TB) leukemia) was 2.59 µM. For the same molecule, the GI50 (HOP-92 NSCLC) was 0.677 µM, the TGI (HOP-92 NSCLC) was 4.6 µM and the GI50 (IGROV1 ovarian) was 1.66 µM. The TGI (IGROV1 ovarian) was 3.2 µM, the GI50 (NCI-H460 lung) was 1.73 µM and the TGI (NCI-H460 lung) was 3.84 µM. The GI50 (SK-MEL-2 melanoma) was 2.41 µM, the TGI (SK-MEL-2 melanoma) was 6.61 µM and the GI50 (SK-MEL-28 melanoma) was 3.07 µM. It also gave a TGI (SK-MEL-28 melanoma) of 12.2 µM, a GI50 (SW-620 colon) of 2.13 µM and a TGI (SW-620 colon) of 10.1 µM.
With COc1ccc(OCC(C)(C)O)cc1 the TGI (A498 renal) was greater than 100 µM, the TGI (CAKI-1 renal) was greater than 100 µM and the TGI (HL-60(TB) leukemia) was greater than 100 µM. It also gave a TGI (HOP-92 NSCLC) greater than 100 µM, a TGI (IGROV1 ovarian) greater than 100 µM and a TGI (NCI-H460 lung) greater than 100 µM. It also gave a TGI (RXF 393 renal) greater than 100 µM, a TGI (SK-MEL-2 melanoma) greater than 100 µM and a TGI (SK-MEL-28 melanoma) greater than 100 µM. The TGI (SW-620 colon) was greater than 100 µM.
COc1ccc2c(c1)c(=O)c1c(NCCCN(C)C)ccc3ncn2c31 showed a TGI (A498 renal) of 24.2 µM, a TGI (CAKI-1 renal) of 22.6 µM and a TGI (HL-60(TB) leukemia) of 25.1 µM. The TGI (HOP-92 NSCLC) was 19.5 µM, the TGI (IGROV1 ovarian) was 21.2 µM and the TGI (NCI-H460 lung) was 8.03 µM. For the same molecule, the TGI (RXF 393 renal) was 2.28 µM, the TGI (SK-MEL-2 melanoma) was 22.1 µM and the TGI (SK-MEL-28 melanoma) was 26.4 µM. The TGI (SW-620 colon) was 15.3 µM.
Molecule CCOC(=O)/C=C/c1c[nH]c(=O)[nH]c1=O has a TGI (A498 renal) greater than 75 µM, a TGI (CAKI-1 renal) greater than 75 µM and a TGI (HL-60(TB) leukemia) greater than 75 µM. It also gave a TGI (HOP-92 NSCLC) greater than 75 µM, a TGI (IGROV1 ovarian) greater than 75 µM and a TGI (NCI-H460 lung) greater than 75 µM. It also gave a TGI (RXF 393 renal) greater than 75 µM, a TGI (SK-MEL-2 melanoma) greater than 75 µM and a TGI (SK-MEL-28 melanoma) greater than 75 µM. The TGI (SW-620 colon) was greater than 75 µM.
With COC1C(OC(C)=O)CC(=O)OC(C)C/C=C/C=C\C(O)C(C)CC(CC=O)C1OC1OC(C)C(OC2CC(C)(O)C(OC(=O)CC(C)C)C(C)O2)C(N(C)C)C1O (configuration not stated) the TGI (A498 renal) was greater than 100 µM, the TGI (CAKI-1 renal) was greater than 100 µM and the GI50 (HL-60(TB) leukemia) was 36.2 µM and > 100 µM. It also gave a TGI (HL-60(TB) leukemia) greater than 100 µM, a TGI (HOP-92 NSCLC) greater than 100 µM and a TGI (IGROV1 ovarian) greater than 100 µM. It also gave a TGI (NCI-H460 lung) greater than 100 µM, a TGI (RXF 393 renal) greater than 100 µM and a TGI (SK-MEL-2 melanoma) greater than 100 µM. For the same molecule, the TGI (SK-MEL-28 melanoma) was greater than 100 µM and the TGI (SW-620 colon) was greater than 100 µM.
c1ccc(N2N=C3N(c4ccccc4)C2N3c2ccccc2)cc1 showed a TGI (A498 renal) greater than 100 µM, a TGI (CAKI-1 renal) greater than 100 µM and a TGI (HL-60(TB) leukemia) greater than 100 µM. For the same molecule, the TGI (HOP-92 NSCLC) was 60.8 µM, the TGI (IGROV1 ovarian) was greater than 100 µM and the TGI (NCI-H460 lung) was greater than 100 µM. The TGI (RXF 393 renal) was greater than 100 µM, the TGI (SK-MEL-2 melanoma) was 73 µM and the TGI (SK-MEL-28 melanoma) was 43.4 µM. For the same molecule, the TGI (SW-620 colon) was greater than 100 µM.
With CCOC(=O)C1=C(C)N(C2OC(COC(C)=O)C(OC(C)=O)C(OC(C)=O)C2OC(C)=O)C(=O)NC1c1ccccc1 (configuration not stated) the TGI (A498 renal) was greater than 100 µM, the TGI (CAKI-1 renal) was greater than 100 µM and the TGI (HL-60(TB) leukemia) was greater than 100 µM. It also gave a TGI (IGROV1 ovarian) greater than 100 µM, a TGI (NCI-H460 lung) greater than 100 µM and a TGI (SK-MEL-2 melanoma) greater than 100 µM. The TGI (SK-MEL-28 melanoma) was greater than 100 µM and the TGI (SW-620 colon) was greater than 100 µM.
COc1c2occc2cc2ccc(=O)oc12 was tested, and the TGI (A498 renal) was greater than 100 µM, the TGI (CAKI-1 renal) was greater than 100 µM and the TGI (HL-60(TB) leukemia) was greater than 100 µM. The TGI (HOP-92 NSCLC) was greater than 100 µM, the GI50 (IGROV1 ovarian) was greater than 100 µM and the TGI (IGROV1 ovarian) was greater than 100 µM. The TGI (NCI-H460 lung) was greater than 100 µM, the GI50 (RXF 393 renal) was greater than 100 µM and the TGI (RXF 393 renal) was greater than 100 µM. It also gave a TGI (SK-MEL-2 melanoma) greater than 100 µM, a TGI (SK-MEL-28 melanoma) greater than 100 µM and a TGI (SW-620 colon) greater than 100 µM.
In the case of COc1ccc2c(c1)C=C(C(C)(C)C)NS2(=O)=O, the TGI (A498 renal) is reported as greater than 100 µM, the TGI (CAKI-1 renal) is reported as greater than 100 µM and the TGI (HL-60(TB) leukemia) is reported as greater than 100 µM. The TGI (HOP-92 NSCLC) was greater than 100 µM, the TGI (IGROV1 ovarian) was greater than 100 µM and the TGI (NCI-H460 lung) was greater than 100 µM. For the same molecule, the TGI (RXF 393 renal) was greater than 100 µM, the TGI (SK-MEL-2 melanoma) was greater than 100 µM and the TGI (SK-MEL-28 melanoma) was greater than 100 µM. The TGI (SW-620 colon) was greater than 100 µM.
Work on C[C@]12CC/C(=N\O)C=C1CC[C@@H]1[C@@H]2CC[C@]2(C)C(=N/O)/C(=C/c3ccncc3)C[C@@H]12 yielded a TGI (CAKI-1 renal) greater than 100 µM, a TGI (HL-60(TB) leukemia) of 5.09 µM and a TGI (HOP-92 NSCLC) greater than 100 µM. The TGI (IGROV1 ovarian) was greater than 100 µM, the TGI (NCI-H460 lung) was 85 µM and the TGI (RXF 393 renal) was greater than 100 µM. It also gave a TGI (SK-MEL-2 melanoma) of 34.2 µM, a TGI (SK-MEL-28 melanoma) greater than 100 µM and a TGI (SW-620 colon) greater than 100 µM.
For CC1OC(OC2C[C@](O)(C(=O)CBr)Cc3c(O)c4c(c(O)c32)C(=O)c2ccccc2C4=O)C(F)C(O)C1O (some centres not stated), the TGI (A498 renal) was 30.9 µM, the TGI (CAKI-1 renal) was 49 µM and the TGI (HL-60(TB) leukemia) was 3.22 µM. For the same molecule, the TGI (HOP-92 NSCLC) was 40.6 µM, the TGI (IGROV1 ovarian) was 60.9 µM and the TGI (NCI-H460 lung) was 48.6 µM. It also gave a TGI (RXF 393 renal) of 35.6 µM, a TGI (SK-MEL-2 melanoma) of 79.5 µM and a TGI (SK-MEL-28 melanoma) greater than 66.1 µM. It also gave a TGI (SW-620 colon) greater than 45.8 µM.
CC(=O)OCc1nnn2c1CCC2 was tested, and the TGI (HL-60(TB) leukemia) was greater than 100 µM, the TGI (HOP-92 NSCLC) was greater than 100 µM and the TGI (IGROV1 ovarian) was greater than 100 µM. The TGI (NCI-H460 lung) was greater than 100 µM, the TGI (RXF 393 renal) was greater than 100 µM and the TGI (SK-MEL-2 melanoma) was greater than 100 µM. It also gave a TGI (SK-MEL-28 melanoma) greater than 100 µM and a TGI (SW-620 colon) greater than 100 µM.
For CC(c1ccccc1)C(O)S(=O)(=O)O (configuration not stated), the TGI (A498 renal) was greater than 100 µM, the TGI (HOP-92 NSCLC) was greater than 100 µM and the TGI (IGROV1 ovarian) was greater than 100 µM. For the same molecule, the TGI (NCI-H460 lung) was greater than 100 µM, the TGI (RXF 393 renal) was greater than 100 µM and the TGI (SK-MEL-2 melanoma) was greater than 100 µM. The TGI (SK-MEL-28 melanoma) was greater than 100 µM and the TGI (SW-620 colon) was greater than 100 µM.
Molecule CCCCn1c(C)c2c(c1C)C(=O)N(CCN1CCN(c3ccccc3Cl)CC1)C2=O has a TGI (A498 renal) greater than 100 µM, a TGI (CAKI-1 renal) greater than 100 µM and a TGI (HL-60(TB) leukemia) of 51 µM. For the same molecule, the TGI (HOP-92 NSCLC) was 68.5 µM, the TGI (IGROV1 ovarian) was greater than 100 µM and the TGI (NCI-H460 lung) was greater than 100 µM. It also gave a TGI (SK-MEL-2 melanoma) of 49 µM and a TGI (SW-620 colon) greater than 100 µM.
